19 compounds from patent US20240376068A1, “SIGMA LIGAND COMPOUNDS AND USES THEREOF” (Minerva Neurosciences, Inc., priority 2020, published 2024) can be followed below.

Structures are written as SMILES. Read-outs that look alike come from different tables or passages of the source. Some results are limits rather than exact numbers.

A word on the Ki: it is the equilibrium dissociation constant of an inhibitor or competing ligand from its target. One may read the inhibition as the change of the read-out against control, counted positive when it falls. As a reminder, the IC50 is the midpoint of a concentration-inhibition curve.

One assay concerns the target sigma 1 (h) (Homo sapiens (Human), UniProt Q99720). The assay can be described thus: Sigma-1 binding assay. The note with it: [3H](+)pentazocine, Jurkat cells; read-out: Sigma-1 Ki. The method, then:
(§1) Assays for determining Sigma-1 and Sigma-2 binding values were performed according to Ganapathy, M. E. et al. (1999), J. Pharmacol. Exp. Ther., 289:251-260.

The next assay addresses Sigma 2 (h) (Homo sapiens (Human), UniProt Q5BJF2). The assay can be described thus: Sigma-2 binding assay. The method, then: as §1
The target of assay [1] is T1, α1a (h) (Homo sapiens (Human), UniProt P35348). The experiment in a line: α1A adrenergic agonist effect assay. Type of assay: cell-based. The settings on record: α1A(h) agonist effect, 1 μM; read-out: % stimulation relative to control (1 μM). The method, then: Assays for determining the agonist effect on α1A (h) were performed according to the procedure described in Example 21, and the results are represented in Table D below.
T1 sequence (P35348 whole entry): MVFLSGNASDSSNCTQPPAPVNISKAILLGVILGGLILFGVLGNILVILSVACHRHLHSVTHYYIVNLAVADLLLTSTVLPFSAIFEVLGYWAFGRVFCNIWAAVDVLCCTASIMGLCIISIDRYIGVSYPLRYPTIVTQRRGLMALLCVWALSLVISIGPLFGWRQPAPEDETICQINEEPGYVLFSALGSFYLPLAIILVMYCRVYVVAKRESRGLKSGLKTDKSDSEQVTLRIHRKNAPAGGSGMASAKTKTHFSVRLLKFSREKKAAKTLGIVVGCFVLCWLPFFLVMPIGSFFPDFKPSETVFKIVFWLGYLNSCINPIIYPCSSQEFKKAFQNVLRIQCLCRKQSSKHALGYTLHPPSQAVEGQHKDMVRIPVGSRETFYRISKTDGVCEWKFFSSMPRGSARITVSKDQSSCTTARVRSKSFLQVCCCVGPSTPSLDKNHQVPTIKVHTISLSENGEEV

The next assay concerns the target dopamine D2S receptor (Homo sapiens (Human), UniProt P14416). The experiment in a line: Dopamine D2S receptor binding assay (Eurofins Cerep item 1322). The note with it: [3H]7-OH-DPAT, read-out: % inhibition of control specific binding (1 μM). The method, then: Assays for determining dopamine D2S receptor binding values were performed according to Eurofins Cerep protocol item 1322 and the results are represented in Table C below. The parameters used for the assay are described below. […] Common antipsychotics, in contrast, block dopamine receptors (Keefe, et al., J Clin Psychiatry. 2018; 79 (3): 17m11753).

In a further assay the target is 5HT2A (Homo sapiens (Human), UniProt P28223). The assay can be described thus: 5HT2A agonist effect assay. Type of assay: cell-based. The settings on record: for activation at 0.1 µM: 100 nM, read-out: % stimulation relative to control (100 nM); for activation at 1 µM: read-out: % stimulation relative to control (1 μM). The method, then: Assays for determining the agonist effect on 5HT2A were performed according to the procedure described in Example 21, and the results are represented in Table F below. The compounds in Table F have no agonist effect on 5HT2A at 1 μM and 100 nM.

For another assay, the target named is hERG (Homo sapiens (Human), UniProt Q12809). The experiment in a line: hERG inhibition assay.
hERG, sequence (Q12809 whole entry): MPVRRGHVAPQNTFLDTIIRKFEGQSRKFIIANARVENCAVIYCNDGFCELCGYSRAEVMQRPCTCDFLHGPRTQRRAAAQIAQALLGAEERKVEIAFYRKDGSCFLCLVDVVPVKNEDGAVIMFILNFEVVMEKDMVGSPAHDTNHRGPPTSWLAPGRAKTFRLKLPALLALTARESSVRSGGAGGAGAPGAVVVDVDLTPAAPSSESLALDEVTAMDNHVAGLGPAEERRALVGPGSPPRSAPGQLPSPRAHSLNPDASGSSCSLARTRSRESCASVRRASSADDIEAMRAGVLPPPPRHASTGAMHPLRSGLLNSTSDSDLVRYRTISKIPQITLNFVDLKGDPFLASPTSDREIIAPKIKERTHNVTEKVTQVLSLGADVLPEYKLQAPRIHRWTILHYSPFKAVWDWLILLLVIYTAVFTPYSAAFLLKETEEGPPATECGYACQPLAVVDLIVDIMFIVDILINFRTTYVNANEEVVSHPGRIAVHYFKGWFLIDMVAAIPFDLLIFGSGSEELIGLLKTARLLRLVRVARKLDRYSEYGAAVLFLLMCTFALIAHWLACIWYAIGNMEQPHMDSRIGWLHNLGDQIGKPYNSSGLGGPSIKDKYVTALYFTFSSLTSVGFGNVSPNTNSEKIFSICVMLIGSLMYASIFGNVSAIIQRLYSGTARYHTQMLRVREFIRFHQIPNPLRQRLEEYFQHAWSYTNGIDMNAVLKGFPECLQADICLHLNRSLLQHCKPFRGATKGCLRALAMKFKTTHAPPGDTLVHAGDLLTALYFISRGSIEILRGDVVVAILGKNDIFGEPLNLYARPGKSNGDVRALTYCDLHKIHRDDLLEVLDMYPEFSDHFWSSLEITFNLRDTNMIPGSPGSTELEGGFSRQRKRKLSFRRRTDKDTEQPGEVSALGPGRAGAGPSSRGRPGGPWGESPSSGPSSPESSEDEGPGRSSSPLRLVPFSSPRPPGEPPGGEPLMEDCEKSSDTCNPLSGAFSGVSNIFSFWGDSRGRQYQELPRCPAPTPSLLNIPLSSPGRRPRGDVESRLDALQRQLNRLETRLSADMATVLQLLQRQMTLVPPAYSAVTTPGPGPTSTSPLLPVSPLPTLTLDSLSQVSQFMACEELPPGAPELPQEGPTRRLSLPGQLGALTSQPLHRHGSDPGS
Assay [2] deals with T1, α1a (h). The experiment in a line: α1A adrenergic antagonist effect assay. The class given is cell-based. The settings on record: for inhibition at 1 µM: α1A(h) antagonist effect, read-out: % inhibition of control values (1 μM). The method, then:
Assays for determining the antagonist effect on α1A (h) were performed according to the procedure described in Example 21, and the results are represented in Table E below. […] No antagonist effect is observed for the other compounds.

[3] abbreviates: [3H]DTG (+1 μM (+)pentazocine), Jurkat cells, read-out: Sigma-2 Ki.

dopamine D2S receptor, sequence (P14416 other isoform, or with tags, fused parts or gaps): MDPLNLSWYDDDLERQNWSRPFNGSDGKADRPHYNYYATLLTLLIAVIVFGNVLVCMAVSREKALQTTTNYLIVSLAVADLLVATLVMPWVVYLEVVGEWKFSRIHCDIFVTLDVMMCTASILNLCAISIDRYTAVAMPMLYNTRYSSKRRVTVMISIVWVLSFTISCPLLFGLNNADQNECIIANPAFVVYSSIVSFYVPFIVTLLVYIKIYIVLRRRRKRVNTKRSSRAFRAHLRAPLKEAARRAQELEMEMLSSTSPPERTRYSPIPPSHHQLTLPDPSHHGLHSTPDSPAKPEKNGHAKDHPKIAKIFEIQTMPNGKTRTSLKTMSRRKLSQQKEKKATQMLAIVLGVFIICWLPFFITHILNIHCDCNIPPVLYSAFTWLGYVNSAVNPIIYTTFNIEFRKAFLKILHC
Sigma 2 (h), sequence (Q5BJF2 whole entry): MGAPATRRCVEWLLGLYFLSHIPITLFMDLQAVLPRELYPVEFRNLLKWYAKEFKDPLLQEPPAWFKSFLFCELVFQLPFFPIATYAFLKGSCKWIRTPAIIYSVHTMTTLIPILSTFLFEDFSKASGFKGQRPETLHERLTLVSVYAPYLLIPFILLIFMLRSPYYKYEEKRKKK
sigma 1 (h), sequence (Q99720 whole entry): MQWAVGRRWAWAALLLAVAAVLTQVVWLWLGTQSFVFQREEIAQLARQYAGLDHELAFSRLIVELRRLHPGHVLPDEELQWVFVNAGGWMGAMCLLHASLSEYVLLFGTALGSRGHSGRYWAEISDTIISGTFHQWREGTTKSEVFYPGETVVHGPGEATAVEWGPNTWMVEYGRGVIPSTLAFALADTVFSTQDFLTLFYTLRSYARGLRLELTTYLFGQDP

Turning to `CN1CCN(c2ccc3c(c2)CN(C(=O)OCc2ccccc2)CC3(C)C)CC1` [Compound 1, benzyl 4,4-dimethyl-7-(4-methylpiperazin-1-yl)-3,4-dihydroisoquinoline-2(1H)-carboxylate], the Ki on sigma 1 (h) and at Sigma 2 (h) (setting [3]) was 100 to 500 nM each time.
For `COC(=O)CCN1CCN(c2ccc3c(c2)CN(C(=O)OCc2ccccc2)CC3(C)C)CC1` [Compound 3, benzyl 7-(4-(3-methoxy-3-oxopropyl)piperazin-1-yl)-4,4-dimethyl-3,4-dihydroisoquinoline-2(1H)-carboxylate], the Ki on sigma 1 (h) lay within 100 to 500 nM; at Sigma 2 (h) (setting [3]) it was 5 to 50 nM.
Consider `CC1(C)CN(C2CCCC2)Cc2cc(-c3ccc(C(F)(F)F)cc3)ccc21` [Compound 4, 2-cyclopentyl-4,4-dimethyl-7-(4-(trifluoromethyl)phenyl)-1,2,3,4-tetrahydroisoquinoline], for which the Ki on sigma 1 (h) was more than 500 nM; on Sigma 2 (h) (setting [3]) it was 100 to 500 nM.
In the case of `CC1(C)CN(CCCO)Cc2cc(-c3ccc(C(F)(F)F)cc3)ccc21` [Compound 5, 3-(4,4-dimethyl-7-(4-(trifluoromethyl)phenyl)-3,4-dihydroisoquinolin-2(1H)-yl)propan-1-ol], the Ki at sigma 1 (h) and on Sigma 2 (h) (setting [3]) was 100 to 500 nM throughout.
Take `CCCN1Cc2cc(-c3ccc(C(F)(F)F)cc3)ccc2C(C)(C)C1` [Compound 6, 4,4-dimethyl-2-propyl-7-(4-(trifluoromethyl)phenyl)-1,2,3,4-tetrahydroisoquinoline]: the Ki at sigma 1 (h) and at Sigma 2 (h) (setting [3]) was more than 500 nM each time.
On to `CN1CCN(c2ccc3c(c2)CN(C(=O)OCc2ccccc2)CCC3(C)C)CC1` [Compound 7, benzyl 5,5-dimethyl-8-(4-methylpiperazin-1-yl)-1,3,4,5-tetrahydro-2H-benzo[c]azepine-2-carboxylate], for which the Ki on sigma 1 (h) lay in the range of 5 to 50 nM; on Sigma 2 (h) (setting [3]), 100 to 500 nM.
On to `CCCN1CCN(c2ccc3c(c2)CN(C(=O)OCc2ccccc2)CCC3(C)C)CC1` [Compound 8, benzyl 5,5-dimethyl-8-(4-propylpiperazin-1-yl)-1,3,4,5-tetrahydro-2H-benzo[c]azepine-2-carboxylate], for which the Ki on sigma 1 (h) lay in the range of 0.1 to 5 nM; on Sigma 2 (h) (setting [3]), 5 to 50 nM.
Turning to `COC(=O)CCN1CCN(c2ccc3c(c2)CN(C(=O)OCc2ccccc2)CCC3(C)C)CC1` [Compound 9, benzyl 8-(4-(3-methoxy-3-oxopropyl)piperazin-1-yl)-5,5-dimethyl-1,3,4,5-tetrahydro-2H-benzo[c]azepine-2-carboxylate], the Ki at sigma 1 (h) and on Sigma 2 (h) (setting [3]) was 5 to 50 nM in each case.
Consider `CC1(C)CCN(CCCO)Cc2cc(-c3ccc(C(F)(F)F)cc3)ccc21` [Compound 11, 3-(5,5-dimethyl-8-(4-(trifluoromethyl)phenyl)-1,3,4,5-tetrahydro-2H-benzo[c]azepin-2-yl)propan-1-ol], for which the values for the Ki on sigma 1 (h) and on Sigma 2 (h) (setting [3]) were more than 500 nM and 100 to 500 nM, respectively.
With `CCCN1CCC(C)(C)c2ccc(-c3ccc(C(F)(F)F)cc3)cc2C1` [Compound 12, 5,5-dimethyl-2-propyl-8-(4-(trifluoromethyl)phenyl)-2,3,4,5-tetrahydro-1H-benzo[c]azepine], the Ki on sigma 1 (h) is more than 500 nM; at Sigma 2 (h) (setting [3]), 50 to 100 nM.
`CC1(C)CCN(C2CCCCC2)Cc2cc(-c3ccc(C(F)(F)F)cc3)ccc21` [Compound 32, 2-cyclohexyl-5,5-dimethyl-8-(4-(trifluoromethyl)phenyl)-2,3,4,5-tetrahydro-1H-benzo[c]azepine]: the figures for the activation at 1 µM on α1a (h) [1] and on 5HT2A were 0% and 2%, respectively. Besides, the inhibition at 1 µM at dopamine D2S receptor was found to be 8%; on α1a (h) [2] it was 25%. Further, the activation at 0.1 µM at 5HT2A worked out at 1%. At hERG, this compound came in with an IC50 of more than 3000 nM. Further, the Ki on Sigma 2 (h) lay in the range of 50 to 100 nM.
Turning to `CC1(C)CN(S(=O)(=O)c2cccc(Cl)c2)Cc2cc(N3CCN(C4CCCC4)CC3)ccc21` [Compound 33, 2-((3-chlorophenyl)sulfonyl)-7-(4-cyclopentylpiperazin-1-yl)-4,4-dimethyl-1,2,3,4-tetrahydroisoquinoline], the activation at 1 µM at α1a (h) [1] and at 5HT2A was -1% in each case. Further, the inhibition at 1 µM was found to be 13% on dopamine D2S receptor and 9% on α1a (h) [2]. For the same compound, the activation at 0.1 µM at 5HT2A turned out to be 0%. Further, the IC50 against hERG is more than 3000 nM. Further, the Ki on sigma 1 (h) and on Sigma 2 (h) (setting [3]) was 0.1 to 5 nM throughout.
In the case of `CC1(C)CN(C(=O)c2cc(F)cc(Cl)c2)Cc2cc(N3CCN(C4CCCC4)CC3)ccc21` [Compound 38, (3-chloro-5-fluorophenyl)(7-(4-cyclopentylpiperazin-1-yl)-4,4-dimethyl-3,4-dihydroisoquinolin-2(1H)-yl)methanone], the activation at 1 µM at α1a (h) [1] was 0%; on 5HT2A it was -1%. The values for the inhibition at 1 µM at dopamine D2S receptor and at α1a (h) [2] were 1% and 51%, respectively. For the same compound, the activation at 0.1 µM on 5HT2A was 0%. Moreover, the IC50 against hERG was 2040 nM. Moreover, the Ki on sigma 1 (h) and on Sigma 2 (h) (setting [3]) was 0.1 to 5 nM each time. Besides, the “antagonist effect on α1A (h) (in words)” value at α1a (h) [2] is “small antagonist effect”.
Consider `CC1(C)CN(C(=O)OC2CCCCC2)Cc2cc(N3CCN(C4CCCC4)CC3)ccc21` [Compound 43, cyclohexyl 7-(4-cyclopentylpiperazin-1-yl)-4,4-dimethyl-3,4-dihydroisoquinoline-2(1H)-carboxylate], for which the activation at 1 µM on α1a (h) [1] and on 5HT2A was 0% each time. The inhibition at 1 µM at dopamine D2S receptor was 11%; at α1a (h) [2] it was 15%. Besides, the activation at 0.1 µM on 5HT2A is -4%. Also, the IC50 against hERG came to 2770 nM. Further, the Ki on sigma 1 (h) and at Sigma 2 (h) (setting [3]) was 0.1 to 5 nM each time.
For the compound `CC1(C)CCN(C(=O)c2cccc3c2OCO3)Cc2cc(N3CCC(N4CCOCC4)CC3)ccc21` [Compound 84, benzo[d][1,3]dioxol-4-yl(5,5-dimethyl-8-(4-morpholinopiperidin-1-yl)-1,3,4,5-tetrahydro-2H-benzo[c]azepin-2-yl)methanone], the figures for the activation at 1 µM on α1a (h) [1] and on 5HT2A were 0% and -2%, respectively. Further, the inhibition at 1 µM on dopamine D2S receptor was -1%; at α1a (h) [2] it was 19%. The activation at 0.1 µM at 5HT2A is -2%. On hERG, this compound showed an IC50 of more than 3000 nM. Also, at sigma 1 (h), the inhibition constant Ki lay in the range of 5 to 50 nM.
For `CC1(C)CCN(C(=O)C2CCCC2)Cc2cc(N3CCC(N4CCOCC4)CC3)ccc21` [Compound 85, cyclopentyl(5,5-dimethyl-8-(4-morpholinopiperidin-1-yl)-1,3,4,5-tetrahydro-2H-benzo[c]azepin-2-yl)methanone], the results for the activation at 1 µM on α1a (h) [1] and at 5HT2A were 1% and 0%, respectively. Moreover, the inhibition at 1 µM at dopamine D2S receptor is -3%; at α1a (h) [2], 10%. Also, the activation at 0.1 µM on 5HT2A is -2%. The IC50 against hERG was more than 3000 nM. Moreover, the Ki on sigma 1 (h) lay within 5 to 50 nM.
For `CC1(C)CCN(C(=O)C2CCCCC2)Cc2cc(N3CCC(N4CCOCC4)CC3)ccc21` [Compound 86, cyclohexyl(5,5-dimethyl-8-(4-morpholinopiperidin-1-yl)-1,3,4,5-tetrahydro-2H-benzo[c]azepin-2-yl)methanone], the activation at 1 µM at α1a (h) [1] was determined as 0%; at 5HT2A, 1%. Also, the results for the inhibition at 1 µM on dopamine D2S receptor and on α1a (h) [2] were 2% and -3%, respectively. Besides, the activation at 0.1 µM on 5HT2A is 2%. At hERG, this compound gave an IC50 of more than 3000 nM. Also, the Ki at sigma 1 (h) fell in the range of 0.1 to 5 nM.
On to `Cc1cc(-c2ccc3c(c2)CN(CCC(=O)N2CCc4ccccc4C2)CCC3(C)C)cc(C)n1` [Compound 111, 1-(3,4-dihydroisoquinolin-2(1H)-yl)-3-(8-(2,6-dimethylpyridin-4-yl)-5,5-dimethyl-1,3,4,5-tetrahydro-2H-benzo[c]azepin-2-yl)propan-1-one], for which, on α1a (h) [1], the activation at 1 µM is 0%. Moreover, on dopamine D2S receptor, the inhibition at 1 µM is 37%. Moreover, on 5HT2A, the activation at 0.1 µM was -1% and the activation at 1 µM was -2%. Also, the IC50 on hERG amounted to 2220 nM. Besides, the Ki at Sigma 2 (h) (setting [3]) lay within 50 to 100 nM. At α1a (h) [2], the “antagonist effect on α1A (h) (in words)” value is listed as “small antagonist effect” and the inhibition at 1 µM was determined as 57%.
For `Cc1cc(-c2ccc3c(c2)CN(CCC(=O)N2CCC(C)CC2)CCC3(C)C)cc(C)n1` [Compound 131, 3-(8-(2,6-dimethylpyridin-4-yl)-5,5-dimethyl-1,3,4,5-tetrahydro-2H-benzo[c]azepin-2-yl)-1-(4-methylpiperidin-1-yl)propan-1-one], the activation at 1 µM at α1a (h) [1] and on 5HT2A was -1% throughout. In addition, the inhibition at 1 µM on dopamine D2S receptor came to 21%; on α1a (h) [2], 31%. On 5HT2A, the activation at 0.1 µM was 1%. This compound had an IC50 against hERG of more than 3000 nM. At Sigma 2 (h), this compound showed a Ki of 50 to 100 nM.
